Data taken from patent US20110009493A1 (priority 2008, published 2011).
Where two headings read alike, the source gives them in different places.

Experiments:
Mycobacterium bovis = type: cell-based
Pseudomonas aeruginosa = test: Bacterial testing, ISO-GRID membrane filter system; type: cell-based; conditions: 400 ppm hard water; for Results (percent kill) / Results Log10 Reduction: 1 minute contact, 5% organic soil, bacteria 6.81 log10 (CFU/g); for Kill of Pseudomonas aeruginosa (in words): 1 minute, 5% soil
Protocol: • Bacteria (gram negative): Pseudomonas aeruginosa • Pathogenesis: Opportunistic pathogen in humans, cause of 1 in 10 nosocomial infections^1, causes wound, blood, burn, urinary tract, lung and ear infections. ^1http://textbookofbacteriology.net/pseudomonas.html • Concentration of Bacteria: 6.81 log10 (CFU/g) • Solution Contact Time: 1 minute • Dilution media: hard water (400 ppm) • Bio burden: 5% organic soil
The tests were performed using the ISO-GRID™ membrane filter system (Neogen Corp., Lansing, Mich., USA) according to a slightly modified procedure described in the ISO-GRID™ Methods Manual (3rd Ed.; QA Life Sciences, Inc., San Diego, Calif., USA; 1999).

[1] = ten minutes contact, 5% fetal bovine serum, 5.8*10^5 CFU/carrier
[2] = ten minutes contact, 5% fetal bovine serum

Compound	Results (percent kill) (Pseudomonas aeruginosa)	Results Log10 Reduction (Pseudomonas aeruginosa)	Kill of Pseudomonas aeruginosa (in words) (Pseudomonas aeruginosa)	Kill of Mycobacterium bovis (in words) (Mycobacterium bovis; [2])	other results
didecyldimethylammomum bicarbonate/carbonate [1.]					Pass/Fail (Intermediate 30 day read) (Mycobacterium bovis): Fail; Results (Intermediate 30 day read) (Mycobacterium bovis): 1/10
O=Cc1ccccc1C=O [compound 4, Orthophthalaldehyde]	40.2%	2.74 Log10			
O=Cc1ccccc1C=O [2., Orthophthalaldehyde]					Pass/Fail (Intermediate 30 day read) (Mycobacterium bovis; [1]): Fail; Results (Intermediate 30 day read) (Mycobacterium bovis; [1]): 1/10
didecyldimethylammonium bicarbonate/carbonate [DDABC]			Neither OPA nor DDABC alone were sufficient to kill all	neither OPA, nor DDABC alone was sufficient to provide complete kill	
Didecyldimethylammonium bicarbonate/carbonate [compound 3]	87.4%	5.95 Log10			
O=Cc1ccccc1C=O [OPA, orthophthalaldehyde]			Neither OPA nor DDABC alone were sufficient to kill all	neither OPA, nor DDABC alone was sufficient to provide complete kill	
